Target: rat PDE10 enzyme (Rattus norvegicus (Rat), UniProt Q9QYJ6)
Assay: PDE10 scintillation proximity assay (SPA), inhibition of rat PDE10 enzyme activity
Format: biochemical
Conditions: geometric mean of 2-4 determinations unless otherwise indicated (b: ≧5 determinations; c: single determination)
Experimental: PDE10 activity was measured using a scintillation assay (SPA-based method) similar to that previously described by Seeger, T. F. et al., Brain Research 985 (2003) 113-126. The compounds' relative activity as PDE10 inhibitors was investigated by assaying a fixed amount of enzyme in the presence of the test compound and low substrate concentration (cAMP) such that an IC50 could be determined. […] The assay is performed in a 384-well format with 50 μL assay buffer (50 mM TRIS pH 7.5; 1.3 mM MgCl2; 0.01% Brij) containing enough PDE10 to convert ˜20% of 20 nM ^3H-cAMP, and a range of inhibitors. Reactions are incubated for 30 minutes at 25° C. The addition of 20 μL of 8 mg/ml yttrium silicate SPA beads (PerkinElmer) stops the reaction. The plates are sealed (TopSeal, PerkinElmer) and the beads are allowed to settle for 8 hrs, after which they are read on the Trilux Microbeta overnight. ^1Rat enzyme preparation:^2Human enzyme preparation:
The recombinant Bacmid was isolated and used to transfect sf9 insect cells to generate a viral stock. To generate cell paste for purification, sf21 cells were infected with the virus stock and cells were harvested 72 hours after infection as described in Seeger, T. F. et al., Brain Research 985 (2003) 113-126. Insect cell paste was lysed and after centrifugation, the supernatant was chromatographed on Ni-NTA agarose (Qiagen) followed by Mono Q (GE Healthcare Life Sciences) as described in Seeger, T. F. et al., Brain Research 985 (2003) 113-126.

rat PDE10 enzyme, sequence (Q9QYJ6 24-794): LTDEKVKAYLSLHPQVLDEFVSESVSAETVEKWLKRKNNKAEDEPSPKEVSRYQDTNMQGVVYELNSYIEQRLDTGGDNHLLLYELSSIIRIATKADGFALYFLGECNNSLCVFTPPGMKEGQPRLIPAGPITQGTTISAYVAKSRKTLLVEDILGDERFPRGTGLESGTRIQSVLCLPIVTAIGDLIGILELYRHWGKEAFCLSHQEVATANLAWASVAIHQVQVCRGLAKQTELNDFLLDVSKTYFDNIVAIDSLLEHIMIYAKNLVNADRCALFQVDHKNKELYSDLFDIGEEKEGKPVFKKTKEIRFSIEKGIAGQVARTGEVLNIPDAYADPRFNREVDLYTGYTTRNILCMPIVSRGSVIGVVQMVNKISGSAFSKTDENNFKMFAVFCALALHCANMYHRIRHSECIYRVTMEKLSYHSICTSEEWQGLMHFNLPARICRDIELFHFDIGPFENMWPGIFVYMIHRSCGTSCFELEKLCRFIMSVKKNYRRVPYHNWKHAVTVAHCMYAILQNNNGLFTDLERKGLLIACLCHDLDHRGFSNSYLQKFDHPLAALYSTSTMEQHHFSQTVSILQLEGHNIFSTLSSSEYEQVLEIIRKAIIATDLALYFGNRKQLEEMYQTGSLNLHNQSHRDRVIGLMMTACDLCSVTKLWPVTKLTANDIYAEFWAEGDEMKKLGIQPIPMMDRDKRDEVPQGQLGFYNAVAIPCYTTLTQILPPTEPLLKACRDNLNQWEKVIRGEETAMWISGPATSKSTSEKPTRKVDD

Row | Compound | IC50
1 | CCc1c2c(nn1C)CCN(c1ncnn3c(C)nc(C4CCOCC4)c13)C2 [Example 105, 4-(3-ethyl-2-methyl-2,4,6,7-tetrahydro-5H-pyrazolo[4,3-c]pyridin-5-yl)-7-methyl-5-(tetrahydro-2H-pyran-4-yl)imidazo[5,1-f][1,2,4]triazine] | 1.88 nM
2 | CCc1nn(C)c2c1CN(c1ncnn3c(C)nc(C4CCOCC4)c13)CC2 [Example 106, 4-(3-ethyl-1-methyl-1,4,6,7-tetrahydro-5H-pyrazolo[4,3-c]pyridin-5-yl)-7-methyl-5-(tetrahydro-2H-pyran-4-yl)imidazo[5,1-f][1,2,4]triazine] | 1.44 nM
3 | CCc1n[nH]c2c1CN(c1ncnn3c(C)nc(C4CCOCC4)c13)CC2 [Example 107, 4-(3-ethyl-1,4,6,7-tetrahydro-5H-pyrazolo[4,3-c]pyridin-5-yl)-7-methyl-5-(tetrahydro-2H-pyran-4-yl)imidazo[5,1-f][1,2,4]triazine] | 0.959 nM
4 | Cc1nc(C2CCOCC2)c2c(N3CCc4[nH]nc(C(C)C)c4C3)ncnn12 [Example 108, 7-methyl-4-(3-(propan-2-yl)-1,4,6,7-tetrahydro-5H-pyrazolo[4,3-c]pyridin-5-yl]-5-(tetrahydro-2H-pyran-4-yl)imidazo[5,1-f][1,2,4]triazine] | 0.902 nM
5 | Cc1nc(-c2ccccc2F)c2c(N3CCn4ncc(C(F)(F)F)c4C3)ncnn12 [Example 109, 5-(2-fluorophenyl)-7-methyl-4-[3-(trifluoromethyl)-6,7-dihydropyrazolo[1,5-a]pyrazin-5(4H)-yl]imidazo[5,1-f][1,2,4]triazine] | 1.73 nM
6 | Cc1nc(-c2ccccc2F)c2c(N3CCc4ncncc4C3)ncnn12 [Example 110, 6-[5-(2-fluorophenyl)-7-methylimidazo[5,1-f][1,2,4]triazin-4-yl]-5,6,7,8-tetrahydropyrido[4,3-d]pyrimidine] | 20 nM
7 | CCc1c2c(nn1C)CCN(c1ncnn3c(C)nc(-c4ccccc4F)c13)C2 [Example 112, 4(3-ethyl-2-methyl-2,4,6,7-tetrahydro-5H-pyrazolo[4,3-c]pyridin-5-yl)-5-(2-fluorophenyl)-7-methylimidazo[5,1-f][1,2,4]triazine] | 0.147 nM
8 | Cc1c2c(nn1C)CCN(c1ncnn3c(C)nc(-c4ccccc4F)c13)C2 [Example 113] | 0.638 nM
9 | Cc1nc2c(s1)CN(c1ncnn3c(C)nc(-c4ccccc4F)c13)CC2 [Example 114, 5-(2-fluorophenyl)-7-methyl-4-(2-methyl-6,7-dihydro[1,3]thiazolo[5,4-c]pyridin-5(4H)-yl)imidazo[5,1-f][1,2,4]triazine] | 1.49 nM
10 | Cc1nn(C)c2c1CN(c1ncnn3c(C)nc(-c4ccccc4F)c13)CC2 [Example 115, 4-(1,3-dimethyl-1,4,6,7-tetrahydro-5H-pyrazolo[4,3-c]pyridin-5-yl)-5-(2-fluorophenyl)-7-methylimidazo[5,1-f][1,2,4]triazine] | 0.834 nM
11 | Cc1nc(-c2ccccc2F)c2c(N3Cc4ccccc4CC3C)ncnn12 (stereo not drawn) [Example 116, 2-[5-(2-fluorophenyl)-7-methylimidazo[5,1-f][1,2,4]triazin-4-yl]-3-methyl-1,2,3,4-tetrahydroisoquinoline] | 8.01 nM
12 | CCc1nn(C)c2c1CN(c1ncnn3c(C)nc(-c4ccccc4F)c13)CC2 [Example 117] | 0.336 nM
13 | CCc1nn(C)c2c1CN(c1ncnn3c(C)nc(-c4ccc(F)cc4Cl)c13)CC2 [Example 119, 5-(2-chloro-4-fluorophenyl)-4-(3-ethyl-1-methyl-1,4,6,7-tetrahydro-5H-pyrazolo[4,3-c]pyridin-5-yl)-7-methylimidazo[5,1-f][1,2,4]triazine] | 0.519 nM
14 | CCc1c2c(nn1C)CCN(c1ncnn3c(C)nc(-c4ccc(F)cc4Cl)c13)C2 [Example 120, 5-(2-chloro-4-fluorophenyl)-4-(3-ethyl-2-methyl-2,4,6,7-tetrahydro-5H-pyrazolo[4,3-c]pyridin-5-yl)-7-methylimidazo[5,1-f][1,2,4]triazine] | 0.233 nM
15 | Cc1nn(C)c2c1CN(c1ncnn3c(C)nc(-c4ccc(F)cc4Cl)c13)CC2 [Example 121, 5-(2-chloro-4-fluorophenyl)-4-(1,3-dimethyl-1,4,6,7-tetrahydro-5H-pyrazolo[4,3-c]pyridin-5-yl)-7-methylimidazo[5,1-f][1,2,4]triazine] | 1.35 nM
16 | Cc1nc(-c2ccc(F)cc2Cl)c2c(N3CCc4cnn(C)c4C3)ncnn12 [Example 122, 5-(2-chloro-4-fluorophenyl)-7-methyl-4-(1-methyl-1,4,5,7-tetrahydro-6H-pyrazolo[3,4-c]pyridin-6-yl)imidazo[5,1-f][1,2,4]triazine] | 2.65 nM
17 | CCOc1nc(C)nc2c1CN(c1ncnn3c(C)nc(-c4ccccc4F)c13)CC2 [Example 123, 4-ethoxy-6-[5-(2-fluorophenyl)-7-methylimidazo[5,1-f][1,2,4]triazin-4-yl]-2-methyl-5,6,7,8-tetrahydropyrido[4,3-d]pyrimidine] | 1.43 nM
18 | Cc1nc2c(c(=O)n1C)CN(c1ncnn3c(C)nc(-c4ccccc4F)c13)CC2 [Example 124, 6-[5-(2-fluorophenyl)-7-methylimidazo[5,1-f][1,2,4]triazin-4-yl]-2,3-dimethyl-5,6,7,8-tetrahydropyrido[4,3-d]pyrimidin-4(3H)-one] | 2.71 nM
19 | Cc1nc2c(c(OC(F)F)n1)CN(c1ncnn3c(C)nc(-c4ccccc4F)c13)CC2 [Example 125, 4-(difluoromethoxy)-6-[5-(2-fluorophenyl)-7-methylimidazo[5,1-f][1,2,4]triazin-4-yl]-2-methyl-5,6,7,8-tetrahydropyrido[4,3-d]pyrimidine] | 6.4 nM
20 | CCn1c(C)nc2c(c1=O)CN(c1ncnn3c(C)nc(-c4ccccc4F)c13)CC2 [Example 126, 3-ethyl-6-[5-(2-fluorophenyl)-7-methylimidazo[5,1-f][1,2,4]triazin-4-yl]-2-methyl-5,6,7,8-tetrahydropyrido[4,3-d]pyrimidin-4(3H)-one] | 1.19 nM
21 | CCn1c(C)nc2c(c1=O)CN(c1ncnn3c(C)nc([C@@H]4CCOC4)c13)CC2 [Example 129, 3-ethyl-2-methyl-6-{7-methyl-5-[(3S)-tetrahydrofuran-3-yl]imidazo[5,1-f][1,2,4]triazin-4-yl}-5,6,7,8-tetrahydropyrido[4,3-d]pyrimidin-4(3H)-one] | 0.0998 nM
22 | CCc1nc(C2CC2)nc2c1CN(c1ncnn3c(C)nc(-c4ccccc4F)c13)CC2 [Example 136, 2-cyclopropyl-4-ethyl-6-[5-(2-fluorophenyl)-7-methylimidazo[5,1-f][1,2,4]triazin-4-yl]-5,6,7,8-tetrahydropyrido[4,3-d]pyrimidine] | 0.265 nM
23 | Cc1ccc2c(n1)CCN(c1ncnn3c(C)nc(-c4ccccc4F)c13)C2 [Example 138, 6-[5-(2-fluorophenyl)-7-methylimidazo[5,1-f][1,2,4]triazin-4-yl]-2-methyl-5,6,7,8-tetrahydro-1,6-naphthyridine] | 0.49 nM
24 | Cc1nc(-c2ccccc2F)c2c(N3CCc4nc(C5CC5)nc(OC(F)F)c4C3)ncnn12 [Example 140, 2-cyclopropyl-4-(difluoromethoxy)-6-[5-(2-fluorophenyl)-7-methylimidazo[5,1-f][1,2,4]triazin-4-yl]-5,6,7,8-tetrahydropyrido[4,3-d]pyrimidine] | 1.5 nM
25 | Cc1nc([C@@H]2CCOC2)c2c(N3CCc4nc(C5CC5)nc(OC(F)F)c4C3)ncnn12 [Example 141, 2-cyclopropyl-4-(difluoromethoxy)-6-{7-methyl-5-[(3S)-tetrahydrofuran-3-yl]imidazo[5,1-f][1,2,4]triazin-4-yl}-5,6,7,8-tetrahydropyrido[4,3-d]pyrimidine] | 0.142 nM
26 | [2H]C([2H])([2H])n1c(C2CC2)nc2c(c1=O)CN(c1ncnn3c(C)nc([C@@H]4CCOC4)c13)CC2 [Example 144] | 0.0837 nM
27 | CCOc1nc(C2CC2)nc2c1CN(c1ncnn3c(C)nc(-c4ccccc4F)c13)CC2 [Example 147, 2-cyclopropyl-4-ethoxy-6-[5-(2-fluorophenyl)-7-methylimidazo[5,1-f][1,2,4]triazin-4-yl]-5,6,7,8-tetrahydropyrido[4,3-d]pyrimidine] | 9.98 nM
28 | CCn1c(C2CC2)nc2c(c1=O)CN(c1ncnn3c(C)nc(-c4ccccc4F)c13)CC2 [Example 149, 2-cyclopropyl-3-ethyl-6-[5-(2-fluorophenyl)-7-methylimidazo[5,1-f][1,2,4]triazin-4-yl]-5,6,7,8-tetrahydropyrido[4,3-d]pyrimidin-4(3H)-one] | 0.497 nM
29 | CCn1c(C2CC2)nc2c(c1=O)CN(c1ncnn3c(C)nc([C@@H]4CCOC4)c13)CC2 [Example 150, 2-cyclopropyl-3-ethyl-6-{7-methyl-5-[(3S)-tetrahydrofuran-3-yl]imidazo[5,1-f][1,2,4]triazin-4-yl}-5,6,7,8-tetrahydropyrido[4,3-d]pyrimidin-4(3H)-one] | 0.0697 nM
30 | Cc1nc(-c2ccccc2F)c2c(N3CCc4ncccc4C3)ncnn12 [Example 151, 6-[5-(2-fluorophenyl)-7-methylimidazo[5,1-f][1,2,4]triazin-4-yl]-5,6,7,8-tetrahydro-1,6-naphthyridine] | 1.01 nM
